Measured values published in patent US8642532B2, “Excipients for protein stabilization” (priority 2007, dated 2014).

Tests used:
[1] = molecular target: T1, Myoglobin (Horse Skeleton) (Equus caballus, UniProt P68082); assay: Inhibition of myoglobin thermal aggregation at 65° C.; type: physicochemical
T1 construct: Myoglobin (Horse Skeleton, Sigma) was made into a stock solution (10 mg/ml); purchased Sigma; host or cells: horse skeletal muscle ('Horse Skeleton' [sic])
Protocol: Myoglobin (Horse Skeleton, Sigma) was made into a stock solution (10 mg/ml) in sodium bicarbonate buffer (0.1 M, pH 9.0). This solution (0.5 ml) was then mixed with various excipient stock solutions (0.10 ml) to provide a series of test samples with the same final myoglobin concentration and varying excipient concentrations ([X]). Then the samples in sealed test tubes were inserted into wells of heating block that was pre-set at 65° C., and the incubation was continued over a period of time, to observe the formation of fibrillation precipitates (PPT).

[2] = molecular target: T2, BSA (Bos taurus, UniProt P02769); assay: Screening of excipients at pH 6.2 for capacity to deter BSA from forming a gel; type: physicochemical, Bovine; conditions: BSA 175 mg/ml
T2 construct: BSA stock solution (35%, in water, 0.85% sodium chloride, from Sigma); purchased Sigma / Sigma Aldrich
T2 sequence (P02769 25-607): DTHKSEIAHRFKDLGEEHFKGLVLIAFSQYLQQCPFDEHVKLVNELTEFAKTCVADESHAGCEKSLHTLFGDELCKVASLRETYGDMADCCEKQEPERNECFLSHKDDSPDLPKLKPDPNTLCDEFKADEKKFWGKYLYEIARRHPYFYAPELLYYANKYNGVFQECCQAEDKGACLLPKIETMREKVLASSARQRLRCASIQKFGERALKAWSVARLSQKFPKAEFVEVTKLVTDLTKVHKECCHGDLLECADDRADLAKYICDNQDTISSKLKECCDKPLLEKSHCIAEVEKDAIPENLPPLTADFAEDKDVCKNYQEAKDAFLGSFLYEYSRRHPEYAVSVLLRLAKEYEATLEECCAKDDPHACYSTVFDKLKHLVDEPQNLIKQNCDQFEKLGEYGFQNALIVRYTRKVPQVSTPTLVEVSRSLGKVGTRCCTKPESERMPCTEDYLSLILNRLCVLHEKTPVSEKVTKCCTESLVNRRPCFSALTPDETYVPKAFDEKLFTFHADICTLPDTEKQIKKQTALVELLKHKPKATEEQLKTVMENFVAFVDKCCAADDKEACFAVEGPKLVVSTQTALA
Protocol: Various excipients were tested for their capacity to deter BSA from forming a gel, using sucrose as a reference, in malonic acid buffer (25 mM), incubated at 65° C. for 60 minutes. The excipients used were sucrose, 4-formylbenzene-1,3-disulfonic acid, 4-formylbenzoic acid, phenylglyoxylic acid, glyoxylic acid. (Tables 2 through 6).

[3] = molecular target: T3, zinc-free recombinant human insulin, NovoRapid, LisPro (Homo sapiens, UniProt P01308); assay: Inhibition of insulin fibrillation by glyoxylic acid, rotator at room temperature; type: physicochemical; conditions: 20 mM glyoxylic acid, phosphate buffer pH 7.0, room temperature, rotator 12 rotations per minute
T3 construct: A solution of zinc-free recombinant human insulin was prepared in phosphate buffer
T3 sequence (P01308 25-54 limits assumed): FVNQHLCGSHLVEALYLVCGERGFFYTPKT
T3 sequence (P01308 90-110 limits assumed): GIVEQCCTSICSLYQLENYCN
Protocol: (§1) A solution of zinc-free recombinant human insulin was prepared in phosphate buffer (50 mM, pH 7.0, no sodium chloride) at concentration of 1.0 mg/ml, containing 0 and 20 mM glyoxylic acid. Commercial NovoRapid (Novo Nordisk, 100 IU/ml) was diluted with phosphate buffer to 25 IU/ml, with and without glyoxylic acid (0 or 20 mM). Humalog 25 (100 IU/ml, Eli Lilly) was centrifuged to collect the supernatant, and the LisPro concentration was assumed to be 25 IU/ml. Then two LisPro samples were made with and without glyoxylic acid (0 or 20 mM) with assumed final LisPro concentration of 20 IU/ml. Each of the samples (1.0 ml) was transferred into a capped 10 ml test tube, and loaded onto a rotator that was set at 12 rotations per minute at room temperature.

[4] = molecular target: T4, Humulin R (zinc insulin) (Homo sapiens, UniProt P01308); assay: Inhibition of zinc insulin fibrillation by glyoxylic acid, rotator at room temperature; type: physicochemical; conditions: containing glyoxylic acid, conditions as in Example 11, rotator
T4 construct: purchased
T4 sequence (P01308 25-54 limits assumed): as the sequence (P01308 25-54 limits assumed) above
Protocol: as §1, with “temperature. […] Conditions were as in Example 11 above, but using commercial Humulin R (100 IU/ml).” for “temperature.”

[5] = molecular target: T2, BSA; assay: Reduction of aggregation of BSA induced by t-butanol, SEC HPLC; type: physicochemical, Bovine; conditions: BSA precipitated with t-butanol, re-dissolved in PBS
Protocol: To three separate test tubes containing 0.050 ml of BSA (35%, 0.85% sodium chloride) and 0.050 ml of phosphate buffer (50 mM, pH 7.4), were respectively added 0.010 ml of water, 0.010 mll of 2-formylbenzenesulfonic acid sodium salt (75 mg/ml, pH 8), and 0.010 ml of pyridoxal phosphate (100 mg/ml, pH 7.4). To each of the three tubes were then added 0.50 ml of PEG solution (75%, molecular weight 3400) followed by centrifugation to give some precipitate. The three supernatants were collected to have BSA at saturated concentrations, and to them were separately added 0.50 ml of t-butanol to have more BSA precipitates after centrifugation. The crops of precipitates from t-butanol were washed with t-butanol twice (0.75 ml each) and re-dissolved in PBS buffer (50 mM sodium phosphate, pH 7.4, 0.85% sodium chloride) for SEC HPLC analysis. Plain BSA produced about 75% of aggregates, the sample with 2-formylbenzenesulfonic acid produced about 60% of aggregates, the sample with pyridoxal phosphate produced less than 50% of aggregates.

[6] = molecular target: T5, zinc-free bovine insulin (Bos taurus, UniProt P01317); assay: Inhibition of insulin fibrillation by pyridoxal phosphate, rotator at 39° C.; type: physicochemical
T5 construct: A solution of zinc-free bovine insulin was prepared in phosphate buffer
T5 sequence (P01317 25-54 limits assumed): as the sequence (P01308 25-54 limits assumed) above, with T30A counted along it
T5 sequence (P01317 85-105 limits assumed): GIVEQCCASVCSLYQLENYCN
Protocol: A solution of zinc-free bovine insulin was prepared in phosphate buffer (50 mM, pH 7.4, no sodium chloride) at concentration of 1.2 mg/ml. Two aliquots of 2.0 ml each were transferred into two separate glass tubes (sanitized in boiling water), and 0.10 ml of water was added to one tube, and 0.10 ml of pyridoxal phosphate (100 mg/ml, in water, pH 7.4) was added to the other. Both tubes were capped and put on a rotator (12 rotations per minute) in an oven at temperature of 39° C.
A solution of zinc-free bovine insulin was prepared in phosphate buffer (50 mM, pH 7.0, no sodium chloride) at concentration of 1.2 mg/ml. Two aliquots of 2.0 ml each were transferred into two separate glass tubes (sanitized in boiling water), and 0.10 ml of water was added to each tube. To 4.0 ml of the insulin solution was added 0.20 ml of pyridoxal phosphate (100 mg/ml, in water, pH 7.4) and the pH was adjusted to 7.0, and divided into two separate glass tubes (sanitized in boiling water). All the four tubes were capped and put on a rotator (12 rotations per minute) in an oven at temperature of 39° C.
A solution of zinc-free bovine insulin (50 mg) was dissolved in 0.50 ml of 0.1 N hydrochloric acid, and neutralized using 0.1 N sodium hydroxide until it turned cloudy and clear again. Then 0.667 ml of pyridoxal phosphate solution (167 mg/ml, pH 7.0 in water) was added to the insulin solution, and the pH was re-adjusted to 7.4 using dilute sodium hydroxide. The total volume was adjusted to 2.5 ml with HPLC grade water. Serial dilution using water provided four samples (1.0 ml each) of insulin concentrations at 2.0, 5.0, 10, 15 mg/ml. All the four samples in glass vials, together with 0.5 ml of the remaining insulin-pyridoxal phosphate solution (20 mg/ml) were capped and put on a rotator (12 rotations per minute) in an oven at temperature of 39° C.

[7] = molecular target: T2, BSA; assay: Reduction of aggregation of BSA induced by methanol, SEC HPLC; type: physicochemical, Bovine; conditions: precipitated with PEG 3400 and methanol, re-dissolved in PBS
Protocol: BSA stock solution (0.050 ml, 35%, 0.85% sodium chloride, Sigma) was diluted with 0.050 ml of sodium phosphate buffer (50 mM, pH 7.4, no sodium chloride) and 0.050 ml of water (HPLC grade). A separate sample was prepared in the same way, but replacing the 0.050 ml of water using 0.050 ml of an excipient solution containing pyridoxal phosphate (represented as X2 in FIG. 1, 100 mg/ml in water, pH 7.4). To each of the two samples in test tubes were added 0.350 ml of an aqueous solution of polyethylene glycol (molecular weight 3400, 75%) to turn the mixtures cloudy, followed by addition of 0.50 ml of methanol (HPLC grade). Then the samples were centrifuged to collect the precipitates. The precipitates were re-dissolved in PBS buffer and analyzed on Size Exclusion Chromatography HPLC. Without excipient, about two thirds of BSA was found in the form of aggregates, while only a quarter of BSA appeared as aggregate in the samples using excipient pyridoxal phosphate.

[8] = molecular target: T6, Bovine Serum Albumin (BSA) (Bos taurus, UniProt P02769); assay: Inhibition of thermal aggregation of BSA, SEC HPLC; type: physicochemical; conditions: 65° C., BSA 1.75 mg/ml, excipient 11.25 mg/ml, pH 7.4
T6 construct: BSA stock solution (35%, in water, 0.85% sodium chloride, from Sigma); purchased Sigma / Sigma Aldrich
T6 sequence (P02769 25-607): as the sequence (P02769 25-607) above
Protocol: A 0.050 ml of BSA stock solution (35%, in water, 0.85% sodium chloride, from Sigma) was diluted into 0.450 ml of sodium phosphate buffer (50 mM, pH 7.4, 0.85% sodium chloride) to give a BSA solution at concentration of 35 mg/ml. An excipient, 2-formylbenzenesulfonic acid, sodium salt (Aldrich, 75%), was made into a solution in water (HPLC grade) at concentration of 75 mg/ml, and its pH was adjusted to 8 using dilute hydrochloric acid.
An aliquot of 0.050 ml of the above stock BSA solution (35 mg/ml) was diluted into PBS buffer (pH 7.4, 0.80 ml), and 0.15 ml of the excipient solution was added to it to make a BSA concentration of 1.75 mg/ml, and the excipient of 11.25 mg/ml. A separate sample was prepared without the addition of the excipient. Both samples in capped glass tubes are incubated at 65° C. […] […] SEC column: TSK gel G3000 SW, 7.5×300 mm, Tosoh Biosciences, part number 05789. Mobile phase: 50 mM phosphate buffer, pH 7.4, 0.85% sodium chloride. Flow rate: 1.0 ml/min. Detection: 280 nm Instrument: BuckChrom BLC-20.

T1 sequence (P68082 whole entry): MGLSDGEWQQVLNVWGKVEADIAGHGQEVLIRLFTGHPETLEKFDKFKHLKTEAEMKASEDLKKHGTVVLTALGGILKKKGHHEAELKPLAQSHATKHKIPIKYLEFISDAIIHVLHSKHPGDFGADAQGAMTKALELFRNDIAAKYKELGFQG

| Structure (SMILES) | Formation of fibrillation precipitates (PPT) ([1]; pH 9.0, 5 weeks, one cell for all [X] of the excipient) | Formation of fibrillation precipitates (PPT) ([1]; pH 9.0, 1 days, higher part of [X] 16.7/41.7/83.3 mM (cell span not shown)) | Formation of fibrillation precipitates (PPT) ([1]; pH 9.0, 1 days, lower part of [X] 16.7/41.7/83.3 mM (cell span not shown)) | Formation of fibrillation precipitates (PPT) ([1]; pH 9.0, 2 days, higher part of [X] 16.7/41.7/83.3 mM (cell span not shown)) | Formation of fibrillation precipitates (PPT) ([1]; pH 9.0, 2 days, lower part of [X] 16.7/41.7/83.3 mM (cell span not shown)) | Formation of fibrillation precipitates (PPT) ([1]; pH 9.0, 4 days, one cell for all [X] of the excipient) | Results, 65° C., 60 minutes ([2]; malonate 25 mM pH 6.2, excipient 5.8 mg/ml) | Results, 65° C., 60 minutes ([2]; malonate 25 mM pH 6.2, excipient 11.5 mg/ml) | Results, 65° C., 60 minutes ([2]; malonate 25 mM pH 6.2, excipient 23 mg/ml) | Appearance of insulin solution (fibrillation) [3] | Appearance of Humulin R solution (fibrillation) [4] | Aggregates produced [5] | Appearance of insulin solution (fibrillation) ([6]; pH 7.0, insulin 1.2 mg/ml, 0.20 ml pyridoxal phosphate 100 mg/ml in 4.0 ml) | Appearance of insulin solution (fibrillation) ([6]; pH 7.4, insulin 1.2 mg/ml, 0.10 ml pyridoxal phosphate 100 mg/ml in 2.0 ml) | Appearance of insulin solution (fibrillation) ([6]; pH 7.4, insulin 2.0, 5.0, 10, 15 and 20 mg/ml with pyridoxal phosphate serially diluted) | Fraction of BSA appearing as aggregate [7] | BSA aggregation on SEC HPLC ([8]; 40 minutes) | BSA aggregation on SEC HPLC ([8]; 60 minutes) |
| --- | --- | --- | --- | --- | --- | --- | --- | --- | --- | --- | --- | --- | --- | --- | --- | --- | --- | --- |
| O=CC(=O)O [Glyoxylic Acid] | Precipitate | Clear | PPT | Clear | PPT | Precipitate | Clear | Clear | Clear | stayed in clear solutions beyond four weeks | remained clear six days before turning cloudy | – | – | – | – | – | – | – |
| Cc1ncc(COP(=O)(O)O)c(C=O)c1O [pyridoxal phosphate] | – | – | – | – | – | – | – | – | – | – | – | less than 50% | still remained clear beyond four weeks | still remained clear after five weeks | still remained clear after three weeks | a quarter | – | – |
| O=Cc1ccccc1S(=O)(=O)[O-].[Na+] [2-formylbenzenesulfonic acid, 2-formylbenzenesulfonic acid, sodium salt] | – | – | – | – | – | – | – | – | – | – | – | about 60% | – | – | – | – | no significant change of BSA | aggregates started to show up in an insignificant amount |
